Entries after “also recorded” stand apart in the source; their conditions may differ. No end group written: not given here.
Tests used:
[1] = tested on: NER activity in HeLa cell extracts; assay: In vitro NER assay: excision of a 1,3-intrastrand cisplatin adduct from plasmid in HeLa cell extract with XPA peptide; format: biochemical
[2] = target: T1, central domain of ERCC1 (ERCC196-214) (Homo sapiens, UniProt P07992); assay: Competitive binding equilibrium titrations, fluorescence anisotropy of 6FAM-labeled single-stranded 40mer DNA
T1 construct: His6 (N); made in house; host or cells: E. coli BL21(DE3)
T1 sequence (P07992 96-214): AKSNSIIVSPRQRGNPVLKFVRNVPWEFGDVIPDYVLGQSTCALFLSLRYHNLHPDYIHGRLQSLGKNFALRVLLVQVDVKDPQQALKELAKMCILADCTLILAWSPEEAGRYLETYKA
Protocol: Binding of a 6FAM-labeled single-stranded DNA 40mer to the central domain of ERCC1 was monitored by fluorescence polarization of the labeled DNA. DNA binding activity is plotted as a function of added XPA67-80 inhibitor. The theoretical curve given by Eq. 9 (solid line) corresponds to the best fit of the data to the dissociation equilibrium constant of 300 nM for the ERCC1-XPA complex.
Competitive binding equilibrium titrations. The equilibrium titrations were performed in a binding buffer containing 20 mM Tris, pH 8.0, 20 mM NaCl, 2 mM betamercaptoethanol. The concentrations of single-stranded 5′ 6-FAM-labeled DNA (5′-CCGGTGGCCAGCGCTCGGCG(T)20; SEQ ID NO:9) and ERCC196-214 were 50 nM and 2.33 μM, respectively, the concentration of the XPA peptide was varied from 0 to 30 μM (FIG. 7). Fluorescence anisotropy measurements were performed as previously reported (Tsodikov et al., 2005). Increasing XPA peptide concentration above 30 μM caused an increase in fluorescence anisotropy and quenching of fluorescence due to nonspecific interactions with the peptide, observed in the presence or absence of ERCC1 (data not shown).
The simplest binding model used in the data analysis consisted of two competitive equilibria, binding of XPA peptide and of the single-stranded 6FAM-labeled 40-mer DNA to the central domain of ERCC1. This model is consistent with the fact that at sufficiently high XPA concentration, the fluorescence anisotropy signal approaches that of unbound DNA. Therefore the two binding equilibria could be written as:
where E, D, X represent the ERCC1, DNA and XPA species, respectively. ED and EX represent ERCC1-DNA and ERCC1-XPA complexes, and KDNA and KXPA are the observed equilibrium association constants, defined in terms of the equilibrium concentrations of the species from Eqs. (2a) and (2b) as:
The approximation made in Equation (4b) is due to the large excess of ERCC1 over DNA at the experimental conditions. It was assumed that each single-stranded 40-mer DNA oligonucleotide contains only one binding site for ERCC1. Because the central domain of ERCC1 occludes 10-15 nucleotides upon binding DNA (1), with a reasonable approximation, a maximum of 2-3 ERCC1 molecules could simultaneously bind to one DNA molecule without significant cooperativity. In this analysis, a value of (KDNA)−1=1.5 μM was used, obtained from the direct titration of ERCC1 at constant concentration (50 nM) of the same DNA oligomer, using the same single site approximation (1). Therefore the value of the equilibrium binding constant for XPA-ERCC1 complex formation, KXPA, should be unaffected by the stoichiometry of ERCC1-DNA binding.
The system of Eqs. 4a, 4b and 4c yields expressions for [E], [X] and [D], which are then used to determined the fraction of bound DNA species, f, as follows:
The observed fluorescence anisotropy, r, is then given by
where r0 and rmax are fluorescent anisotropy values of unbound and fully bound DNA, respectively. […]
XPA competes with single-stranded DNA for binding to ERCC1. Because XPA binds in the groove on ERCC1 (FIG. 2) that was previously implicated in DNA binding activity (Tsodikov et al., 2005), it was determined whether or not XPA competes with single-stranded DNA for binding to ERCC1. DNA binding activity was measured by monitoring fluorescence anisotropy, using single-stranded 40mer oligonucleotide labeled on the 5′ end with 6-carboxyfluorescein. […]

With KIIDTGGGFILEEE [XPA67-80] the “NER activity at 92 μM peptide” value ([1]; HeLa cell extract, 92 μM) was “completely abolishes NER activity”, the “effect on NER excision of the lesion-containing oligonucleotide” value ([1]; HeLa cell free extract, plasmid with 1,3-cisplatin intrastrand crosslink, peptide 46 nM to 92 μM) was “inhibits the in vitro NER reaction” and the “affinity for central domain of ERCC1 relative to single stranded DNA” value [2] was “approximately 3 fold”. The Kd ([2]; best fit of competition titration to Eq. 9, 50 nM DNA, 2.33 μM ERCC196-214, read-out: dissociation equilibrium constant (Kd) of the XPA-ERCC1 complex) was 300 nM, the “EC50 for binding of XPA67-80” value ([2]; competition with 6FAM single-stranded 40mer DNA, accurate measurement precluded by quenching) was “in the micromolar range” and the “competition with single-stranded DNA for binding to ERCC1” value ([2]; fluorescence anisotropy / polarization) was “does compete with DNA for binding to ERCC1; also recorded: competitive inhibitor”. For the same sequence, the “binding of peptide to DNA” value ([2]; single-stranded 40mer, fluorescence anisotropy) was “does not detectably bind to DNA”.
